# Counter-ions that a name gives are not always drawn.
# Tested on: eNOS promoter
# Assay: Activation of eNOS transcription (eNOS promoter-luciferase reporter gene assay)
# Assay type: cell-based, human
# Conditions: 18 h incubation; for EC50: EC50 of transcription induction ratio vs compound concentration, determined graphically, human endothelial cell line stably transfected with eNOS promoter-luciferase construct; for maximal fold induction / TIR(max): maximum transcription induction ratio (luciferase activity with compound / solvent alone), human endothelial cell line with eNOS promoter-luciferase construct; for maximal fold induction: read-out: TIR(max)
# Procedure: Measurement of Activation of eNOS Transcription
# Activation of eNOS transcription was measured as described in detail in Li et al. “Activation of protein kinase C alpha and/or epsilon enhances transcription of the human endothelial nitric oxide synthase gene”, Mol. Pharmacol. 1998; 53: 630-637.
# Briefly, a 3.5 kB long fragment 5′ of the starting codon of the eNOS gene was cloned, sequenced and cloned in firefly luciferase expression plasmids to monitor activation of the eNOS promoter by reporter gene activity. A human endothelial cell line stable transfected and expressing this promoter-reporter construct was used for compound testing. Cells were incubated for 18 h with compounds.
# All compounds were dissolved in sterile DMSO. A final concentration of 0.5% DMSO in complete medium was allowed. Induction of reporter gene expression in these cells was measured using a standard luciferase assay system (Promega, Cat. No E150) according to the manufacturer's instructions. Luciferase induction in cells incubated with compounds were compared to those incubated with solvent alone. The ratio of both activities (transcription induction ratio, TIR) was plotted as a function of compound concentration. Typically, TIR values started at low concentrations at a ratio of 1, indicating no compound effect, and extended up to a maximum TIR value TIR(max) which indicates the increase of the eNOS transcription. EC50 values of transcription induction ratios as a function of compound concentration were determined graphically.
EC50,SMILES,maximal fold induction,TIR(max)
2400 nM,"Nc1ccnc(C(=O)NC2CCCc3ccccc3C2)c1 (stereo not shown) [Compound 146, 4-AMINO-PYRIDINE-2-CARBOXYLIC ACID (6,7,8,9-TETRAHYDRO-5H-BENZOCYCLOHEPTEN-6-YL)-AMIDE]",2.9,–
< 80 nM,"O=C(NC1CCCc2ccccc2C1)c1ccc(F)cc1Cl (stereo not shown) [Compound 4, 2-CHLORO-4-FLUORO-N-(6,7,8,9-TETRAHYDRO-5H-BENZOCYCLOHEPTEN-6-YL)-BENZAMIDE]",2.8,–
2300 nM,"Nc1c(C(=O)NC2CCCc3ccccc3C2)cnn1-c1ccccc1 (stereo not shown) [Compound 61, 5-AMINO-1-PHENYL-1H-PYRAZOLE-4-CARBOXYLIC ACID (6,7,8,9-TETRAHYDRO-5H-BENZOCYCLOHEPTEN-6-YL)-AMIDE]",3.4,–
31 nM,"Nc1ncccc1C(=O)NC1CCCc2ccccc2C1 (stereo not shown) [Compound 25, 2-AMINO-N-(6,7,8,9-TETRAHYDRO-5H-BENZOCYCLOHEPTEN-6-YL)-NICOTINAMIDE HYDROCHLORIDE]",3.1,–
2000 nM,"O=C(NC1CCCc2ccccc2C1)c1ccc(Cl)nc1Cl (stereo not shown) [Compound 70, 2,6-DICHLORO-N-(6,7,8,9-TETRAHYDRO-5H-BENZOCYCLOHEPTEN-6-YL)-NICOTINAMIDE]",3.1,–
250 nM,"O=C(NC1CCCc2ccccc2C1)c1nc(Cl)ccc1Cl (stereo not shown) [Compound 141, 3,6-DICHLORO-PYRIDINE-2-CARBOXYLIC ACID (6,7,8,9-TETRAHYDRO-5H-BENZOCYCLOHEPTEN-6-YL)-AMIDE]",3.2,–
38 nM,"Cc1ccc(C(=O)NC2CCCc3ccccc3C2)c(Cl)n1 (stereo not shown) [Compound 16, 2-CHLORO-6-METHYL-N-(6,7,8,9-TETRAHYDRO-5H-BENZOCYCLOHEPTEN-6-YL)-NICOTINAMIDE]",2.9,–
256 nM,"O=C(NC1CCCc2ccccc2C1)c1ccc(Cl)nc1 (stereo not shown) [Compound 10, 6-CHLORO-N-(6,7,8,9-TETRAHYDRO-5H-BENZOCYCLOHEPTEN-6-YL)-NICOTINAMIDE]",3,–
20 nM,"Cc1cc(C(=O)NC2CCCc3ccccc3C2)c(C)n1-c1ccccc1 (stereo not shown) [Compound 96, 2,5-DIMETHYL-1-PHENYL-1H-PYRROLE-3-CARBOXYLIC ACID (6,7,8,9-TETRAHYDRO-5H-BENZOCYCLOHEPTEN-6-YL)-AMIDE]",3,–
1800 nM,"Cc1ncccc1C(=O)NC1CCCc2ccccc2C1 (single isomer, unassigned) [Compound 26, 2-METHYL-N-(6,7,8,9-TETRAHYDRO-5H-BENZOCYCLOHEPTEN-6-YL)-NICOTINAMIDE]",3.1,–
50 nM,"O=C(N[C@H]1CCCc2ccccc2C1)c1cccc(N2CCCC2)c1 [Compound 132, (S)-3-PYRROLIDIN-1-YL-N-(6,7,8,9-TETRAHYDRO-5H-BENZOCYCLOHEPTEN-6-YL)-BENZAMIDE]",3.1,–
90 nM,"Nc1nc(Cl)ccc1C(=O)NC1CCCc2ccccc2C1 (stereo not shown) [Compound 137, 2-AMINO-6-CHLORO-N-(6,7,8,9-TETRAHYDRO-5H-BENZOCYCLOHEPTEN-6-YL)-NICOTINAMIDE]",3,–
40 nM,"Cc1ccc(C(=O)NC2CCCc3ccccc3C2)c(C)n1 (single isomer, unassigned) [Compound 112, 2,6-DIMETHYL-N-(6,7,8,9-TETRAHYDRO-5H-BENZOCYCLOHEPTEN-6-YL)-NICOTINAMIDE]",3.1,–
3000 nM,"O=C(NC1CCCc2ccccc2C1)c1cc(NCc2ccccc2)ccn1 (stereo not shown) [Compound 142, 4-BENZYLAMINO-PYRIDINE-2-CARBOXYLIC ACID (6,7,8,9-TETRAHYDRO-5H-BENZOCYCLOHEPTEN-6-YL)-AMIDE]",2.5,–
496 nM,"Cc1nc(C(F)(F)F)ccc1C(=O)NC1CCCc2ccccc2C1 (single isomer, unassigned) [Compound 39, 2-METHYL-N-(6,7,8,9-TETRAHYDRO-5H-BENZOCYCLOHEPTEN-6-YL)-6-TRIFLUOROMETHYL-NICOTINAMIDE]",2.9,–
590 nM,"Cc1cc(C(=O)NC2CCCc3ccccc3C2)c(C)n1Cc1ccncc1 (single isomer, unassigned; (-)) [Compound 48, (−)-2,5-DIMETHYL-1-PYRIDIN-4-YLMETHYL-1H-PYRROLE-3-CARBOXYLIC ACID (6,7,8,9-TETRAHYDRO-5H-BENZOCYCLOHEPTEN-6-YL)-AMIDE]",–,3.4
283 nM,"O=C(NC1CCCc2ccccc2C1)c1ccc(C(F)(F)F)nc1 (single isomer, unassigned) [Compound 37, N-(6,7,8,9-TETRAHYDRO-5H-BENZOCYCLOHEPTEN-6-YL)-6-TRIFLUOROMETHYL-NICOTINAMIDE]",2.9,–
1 nM,"O=C(NC1CCCc2ccccc2C1)c1ccc(F)cc1 (single isomer, unassigned; (-)) [Compound 1a, (−)-4-Fluoro-N-(6,7,8,9-tetrahydro-5H-benzocyclohepten-6-yl)-benzamide]",–,3.2

# The next lines start with the molecule.
SMILES,EC50,maximal fold induction,TIR(max)
"Cc1nc(N)c(C(=O)NC2CCCc3ccccc3C2)nc1C (stereo not shown) [Compound 72, 3-AMINO-5,6-DIMETHYL-PYRAZINE-2-CARBOXYLIC ACID (6,7,8,9-TETRAHYDRO-5H-BENZOCYCLOHEPTEN-6-YL)-AMIDE]",71 nM,3.1,–
"Cc1cnc(C(=O)NC2CCCc3ccccc3C2)cn1 (single isomer, unassigned) [Compound 32, 5-METHYL-PYRAZINE-2-CARBOXYLIC ACID (6,7,8,9-TETRAHYDRO-5H-BENZOCYCLOHEPTEN-6-YL)-AMIDE]",47 nM,3,–
"O=C(NC1CCCc2ccccc2C1)c1ccc(N2CCCC2)nc1 (stereo not shown) [Compound 82, 6-PYRROLIDIN-1-YL-N-(6,7,8,9-TETRARYDRO-5H-BENZOCYCLOHEPTEN-6-YL)-NICOTINAMIDE]",283 nM,–,3.2
"O=C(N[C@H]1CCCc2ccccc2C1)c1ccc(OCC(F)(F)F)cc1 [Compound 125, (S)—N-(6,7,8,9-TETRAHYDRO-5H-BENZOCYCLOHEPTEN-6-YL)-4-(2,2,2-TRIFLUORO-ETHOXY)-BENZAMIDE]",40 nM,3,–
"Cc1cc(C(=O)NC2CCCc3ccccc3C2)c(C)[nH]1 (single isomer, unassigned; (+)) [Compound 49, (+)-2,5-DIMETHYL-1H-PYRROLE-3-CARBOXYLIC ACID (6,7,8,9-TETRAHYDRO-5H-BENZOCYCLOHEPTEN-6-YL)-AMIDE]",40 nM,3,–
"CS(=O)(=O)Nc1cccc(C(=O)NC2CCCc3ccccc3C2)c1 (stereo not shown) [Compound 97, 3-METHANESULFONYLAMINO-N-(6,7,8,9-TETRAHYDRO-5H-BENZOCYCLOHEPTEN-6-YL)-BENZAMIDE]",1000 nM,2.5,–
"Cc1cc(C(=O)NC2CCCc3ccccc3C2)c(C)[nH]1 (single isomer, unassigned; (-)) [Compound 50, (−)-2,5-DIMETHYL-1H-PYRROLE-3-CARBOXYLIC ACID (6,7,8,9-TETRAHYDRO-5H-BENZOCYCLOHEPTEN-6-YL)-AMIDE]",1800 nM,–,3
"Cc1ccc(C(=O)N[C@H]2CCCc3ccccc3C2)cc1N(C)C [Compound 131, (S)-3-DIMETHYLAMINO-4-METHYL-N-(6,7,8,9-TETRAHYDRO-5H-BENZOCYCLOHEPTEN-6-YL)-BENZAMIDE]",440 nM,3.1,–
"CS(=O)(=O)Nc1cc(C(=O)NC2CCCc3ccccc3C2)ccc1Cl (stereo not shown) [Compound 98, 4-CHLORO-3-METHANESULFONYLAMIINO-N-(6,7,8,9-TETRAHYDRO-5H-BENZOCYCLOHEPTEN-6-YL)-BENZAMIDE]",574 nM,–,2.6
"Cc1nc2cc(C(=O)N[C@H]3CCCc4ccccc4C3)ccc2[nH]1 [Compound 36, (S)-2-METHYL-1H-BENZOIMIDAZOLE-5-CARBOXYLIC ACID (6,7,8,9-TETRAHYDRO-5H-BENZOCYCLOHEPTEN-6-YL)-AMIDE HYDROCHLORIDE]",50 nM,3.3,–
"O=C(NC1CCCc2ccccc2C1)c1cccc(N2CCOCC2)c1 (stereo not shown) [Compound 108, 3-MORPHOLIN-4-YL-N-(6,7,8,9-TETRAHYDRO-5H-BENZOCYCLOHEPTEN-6-YL)-BENZAMIDE]",14000 nM,3.1,–
"Cc1nc(N(C)C)sc1C(=O)N[C@H]1CCCc2ccccc2C1 [Compound 129, (S)-2-DIMETHYLAMINO-4-METHYL-THIAZOLE-5-CARBOXYLIC ACID (6,7,8,9-TETRAHYDRO-5H-BENZOCYCLOHEPTEN-6-YL)-AMIDE]",100 nM,3.1,–
"CS(=O)(=O)c1cccc(C(=O)NC2CCCc3ccccc3C2)c1 (stereo not shown) [Compound 139, 3-METHANESULFONYL-N-(6,7,8,9-TETRAHYDRO-5H-BENZOCYCLOHEPTEN-6-YL)-BENZAMIDE]",1900 nM,3,–
"CN1CC(=O)Nc2cc(C(=O)NC3CCCc4ccccc4C3)ccc21 (stereo not shown) [Compound 127, 1-METHYL-3-OXO-1,2,3,4-TETRAHYDRO-QUINOXALINE-6-CARBOXYLIC ACID (6,7,8,9-TETRAHYDRO-5H-BENZOCYCLOHEPTEN-6-YL)-AMIDE]",4900 nM,2.7,–

# Source: patent US7709478B2, “Acylated 6,7,8,9-tetrahydro-5H-benzocycloheptenyl amines and their use as pharmaceutical agents” (sanofi-aventis Deutschland GmbH, priority 2001, dated 2010)
